Measured values taken from publication PMC5218480 (PLoS ONE, 2017).

Tested on: MV-4-11 cells
Test: Gene expression microarray analysis (Affymetrix PrimeView) and GSEA
Type: cell-based, human
Parameters: RFU PODN (11730768_x_at) / Fold change /veh PODN (11730768_x_at) / RFU LINC00158 (11744669_a_at) / Fold change /veh LINC00158 (11744669_a_at) / RFU DUSP10 (11751237_a_at) / Fold change /veh DUSP10 (11751237_a_at) / RFU ID3 (11757404_x_at) / Fold change /veh ID3 (11757404_x_at) / RFU PLEKHG5 (11737974_s_at) / Fold change /veh PLEKHG5 (11737974_s_at) / RFU LRRC4B (11730491_at) / Fold change /veh LRRC4B (11730491_at) / RFU GIMAP4 (11747438_a_at) / Fold change /veh GIMAP4 (11747438_a_at) / RFU KRT8 (11758183_x_at) / Fold change /veh KRT8 (11758183_x_at) / RFU CNN1 (11734310_a_at) / Fold change /veh CNN1 (11734310_a_at) / RFU VPS37D (11726825_at) / Fold change /veh VPS37D (11726825_at) / RFU C10orf10 (11716522_x_at) / Fold change /veh C10orf10 (11716522_x_at) / RFU KIR2DL2 /// KIR2DL4 /// KIR2DL5A /// KIR2DL5B /// KIR2DS1 /// KIR2DS2 /// KIR2DS3 /// KIR2DS4 /// KIR3DL3 /// KIR3DL3 /// KIR3DS1 (11738374_at) / Fold change /veh KIR2DL2 /// KIR2DL4 /// KIR2DL5A /// KIR2DL5B /// KIR2DS1 /// KIR2DS2 /// KIR2DS3 /// KIR2DS4 /// KIR3DL3 /// KIR3DL3 /// KIR3DS1 (11738374_at) / RFU C1QL1 (11718748_at) / Fold change /veh C1QL1 (11718748_at) / RFU TMPRSS4 (11747572_a_at) / Fold change /veh TMPRSS4 (11747572_a_at) / RFU HAMP (11756126_x_at) / Fold change /veh HAMP (11756126_x_at) / RFU RNFT2 (11725882_a_at) / Fold change /veh RNFT2 (11725882_a_at) / RFU NR4A2 (11747474_a_at) / Fold change /veh NR4A2 (11747474_a_at) / RFU ABCC12 (11746883_a_at) / Fold change /veh ABCC12 (11746883_a_at) / RFU TMEM136 (11760407_x_at) / Fold change /veh TMEM136 (11760407_x_at) / RFU CLDN22 /// WWC2 (11732394_at) / Fold change /veh CLDN22 /// WWC2 (11732394_at) / RFU HLA-DPB1 (11760878_x_at) / Fold change /veh HLA-DPB1 (11760878_x_at) / RFU SPINT1 (11716480_a_at) / Fold change /veh SPINT1 (11716480_a_at) / RFU GAP43 (11754022_s_at) / Fold change /veh GAP43 (11754022_s_at) / RFU A4GNT (11735810_at) / Fold change /veh A4GNT (11735810_at) / RFU PRB3 (11715151_x_at) / Fold change /veh PRB3 (11715151_x_at) / RFU TUBB4B (11761932_at) / Fold change /veh TUBB4B (11761932_at) / RFU CAPN14 (11732068_a_at) / Fold change /veh CAPN14 (11732068_a_at) / RFU TMCC2 (11721928_a_at) / Fold change /veh TMCC2 (11721928_a_at) / RFU IRGQ (11745062_a_at) / Fold change /veh IRGQ (11745062_a_at) / RFU FAM174B (11720279_a_at) / Fold change /veh FAM174B (11720279_a_at) / RFU TMPRSS4 (11748680_a_at) / Fold change /veh TMPRSS4 (11748680_a_at) / RFU FAM212B (11763350_a_at) / Fold change /veh FAM212B (11763350_a_at) / RFU PLEKHG5 (11743358_a_at) / Fold change /veh PLEKHG5 (11743358_a_at) / RFU ZSCAN30 (11745921_a_at) / Fold change /veh ZSCAN30 (11745921_a_at) / RFU CMKLR1 (11741424_a_at) / Fold change /veh CMKLR1 (11741424_a_at) / RFU LOC101060620 /// MAPK8IP1 (11723275_at) / Fold change /veh LOC101060620 /// MAPK8IP1 (11723275_at) / RFU SPTSSB (11747773_x_at) / Fold change /veh SPTSSB (11747773_x_at) / RFU PRSS12 (11739890_at) / Fold change /veh PRSS12 (11739890_at) / RFU BIN1 (11741810_x_at) / Fold change /veh BIN1 (11741810_x_at) / RFU WNT11 (11732464_a_at) / Fold change /veh WNT11 (11732464_a_at) / RFU C10orf10 (11716521_a_at) / Fold change /veh C10orf10 (11716521_a_at) / RFU C5orf56 (11738089_at) / Fold change /veh C5orf56 (11738089_at) / RFU CYB561 (11721691_x_at) / Fold change /veh CYB561 (11721691_x_at) / RFU ANKRD19P (11752326_a_at) / Fold change /veh ANKRD19P (11752326_a_at) / RFU OR2T12 /// OR2T33 /// OR2T8 (11738714_s_at) / Fold change /veh OR2T12 /// OR2T33 /// OR2T8 (11738714_s_at) / RFU VCAN (11748164_a_at) / Fold change /veh VCAN (11748164_a_at) / RFU JSRP1 (11732532_at) / Fold change /veh JSRP1 (11732532_at) / RFU KRTAP10-11 (11738290_x_at) / Fold change /veh KRTAP10-11 (11738290_x_at) / RFU MYO3A (11730013_a_at) / Fold change /veh MYO3A (11730013_a_at) / RFU EBF3 (11725865_a_at) / Fold change /veh EBF3 (11725865_a_at) / RFU CAMK2N1 (11719241_x_at) / Fold change /veh CAMK2N1 (11719241_x_at) / RFU C5orf56 (11738088_a_at) / Fold change /veh C5orf56 (11738088_a_at) / RFU OLFML3 (11715873_a_at) / Fold change /veh OLFML3 (11715873_a_at) / RFU LOC100653217 /// NTM (11731650_a_at) / Fold change /veh LOC100653217 /// NTM (11731650_a_at) / RFU MAPK11 (11762145_a_at) / Fold change /veh MAPK11 (11762145_a_at) / RFU FIZ1 (11724087_x_at) / Fold change /veh FIZ1 (11724087_x_at) / RFU OASL (11726364_x_at) / Fold change /veh OASL (11726364_x_at) / RFU SOX15 (11748057_x_at) / Fold change /veh SOX15 (11748057_x_at) / RFU CD79A (11719716_a_at) / Fold change /veh CD79A (11719716_a_at) / RFU HIST1H1D (11736915_at) / Fold change /veh HIST1H1D (11736915_at) / RFU CASKIN2 (11723855_a_at) / Fold change /veh CASKIN2 (11723855_a_at) / RFU LOC730098 (11760151_x_at) / Fold change /veh LOC730098 (11760151_x_at) / RFU OR4N2 (11742367_at) / Fold change /veh OR4N2 (11742367_at) / RFU PRRT2 (11749266_a_at) / Fold change /veh PRRT2 (11749266_a_at) / RFU SNX32 (11753110_a_at) / Fold change /veh SNX32 (11753110_a_at) / RFU CDHR5 (11726645_a_at) / Fold change /veh CDHR5 (11726645_a_at) / RFU RCAN1 (11760418_a_at) / Fold change /veh RCAN1 (11760418_a_at) / RFU FAM167A (11723789_a_at) / Fold change /veh FAM167A (11723789_a_at) / RFU FAM26E (11764081_at) / Fold change /veh FAM26E (11764081_at) / RFU ISYNA1 (11749810_s_at) / Fold change /veh ISYNA1 (11749810_s_at) / RFU ACY1 (11761880_at) / Fold change /veh ACY1 (11761880_at) / RFU 11764098_at / Fold change /veh 11764098_at / RFU SAMD14 (11745864_x_at) / Fold change /veh SAMD14 (11745864_x_at) / RFU NPB (11741838_a_at) / Fold change /veh NPB (11741838_a_at) / RFU TMPRSS6 (11731388_a_at) / Fold change /veh TMPRSS6 (11731388_a_at) / RFU KRTAP10-2 (11738614_at) / Fold change /veh KRTAP10-2 (11738614_at) / RFU ARHGAP8 /// PRR5-ARHGAP8 (11727945_x_at) / Fold change /veh ARHGAP8 /// PRR5-ARHGAP8 (11727945_x_at) / RFU KRTAP5-7 /// NADSYN1 (11734609_at) / Fold change /veh KRTAP5-7 /// NADSYN1 (11734609_at) / RFU RASL12 (11751679_a_at) / Fold change /veh RASL12 (11751679_a_at) / RFU CDKN2B (11736163_a_at) / Fold change /veh CDKN2B (11736163_a_at) / RFU PRF1 (11729649_at) / Fold change /veh PRF1 (11729649_at) / RFU, ZNF638 /// ZNF638-IT1 / Fold change vs veh, ZNF638 /// ZNF638-IT1 / RFU, PANK3 / Fold change vs veh, PANK3 / RFU, SH3YL1 / Fold change vs veh, SH3YL1 / RFU, ZEB2 / Fold change vs veh, ZEB2 / RFU, NRIP1 / Fold change vs veh, NRIP1 / RFU, PTTG1IP / Fold change vs veh, PTTG1IP / RFU, CAPN2 / Fold change vs veh, CAPN2 / RFU, MED14 / Fold change vs veh, MED14 / RFU, SNORA58 / Fold change vs veh, SNORA58 / RFU, C1orf63 / Fold change vs veh, C1orf63 / RFU, LRRFIP1 / Fold change vs veh, LRRFIP1 / RFU, NDUFAF7 / Fold change vs veh, NDUFAF7 / RFU, SLC12A2 / Fold change vs veh, SLC12A2 / RFU, IBTK / Fold change vs veh, IBTK / RFU, ESF1 / Fold change vs veh, ESF1 / Fold change vs veh, TMEM50B / RFU, TAOK1 / Fold change vs veh, TAOK1 / RFU, ACBD3 / Fold change vs veh, ACBD3 / RFU, TMA16 / Fold change vs veh, TMA16 / RFU, RWDD3 / Fold change vs veh, RWDD3 / RFU, BCAT1 / Fold change vs veh, BCAT1 / RFU, EDEM3 / Fold change vs veh, EDEM3 / RFU, TMEM33 / Fold change vs veh, TMEM33 / RFU, WDR75 / Fold change vs veh, WDR75 / RFU, AHCTF1 / Fold change vs veh, AHCTF1 / RFU, TFRC / Fold change vs veh, TFRC / RFU, ZDHHC17 / Fold change vs veh, ZDHHC17 / RFU, NOM1 / Fold change vs veh, NOM1 / RFU, ARL8B / Fold change vs veh, ARL8B / RFU, ZBTB11 / Fold change vs veh, ZBTB11 / RFU, TAMM41 / Fold change vs veh, TAMM41 / RFU, KIAA1704 /// LOC100996395 / Fold change vs veh, KIAA1704 /// LOC100996395 / RFU, ING1 / Fold change vs veh, ING1 / RFU, TRMT61B / Fold change vs veh, TRMT61B / RFU, FUBP3 / Fold change vs veh, FUBP3 / RFU, TP53 / Fold change vs veh, TP53 / RFU, TNKS2 / Fold change vs veh, TNKS2 / RFU, ZFP14 / Fold change vs veh, ZFP14 / RFU, ACTR2 / Fold change vs veh, ACTR2 / RFU, PPP3R1 / Fold change vs veh, PPP3R1 / RFU, PIK3R1 / Fold change vs veh, PIK3R1 / RFU, HNRNPA1 / Fold change vs veh, HNRNPA1 / RFU, RNF170 / Fold change vs veh, RNF170 / RFU, ZNF28 / Fold change vs veh, ZNF28 / RFU, RNGTT / Fold change vs veh, RNGTT / RFU, OGT / Fold change vs veh, OGT / RFU, BRD1 / Fold change vs veh, BRD1 / RFU, MARS / Fold change vs veh, MARS / RFU, ZNF655 / Fold change vs veh, ZNF655 / RFU, FAHD1 / Fold change vs veh, FAHD1 / RFU, BDP1 / Fold change vs veh, BDP1 / RFU, LRRCC1 / Fold change vs veh, LRRCC1 / RFU, ARID1A / Fold change vs veh, ARID1A / RFU, ZNF146 / Fold change vs veh, ZNF146 / RFU, ZNF330 / Fold change vs veh, ZNF330 / RFU, GPN3 / Fold change vs veh, GPN3 / RFU, C9orf123 / Fold change vs veh, C9orf123 / RFU, N4BP2L2 / Fold change vs veh, N4BP2L2 / RFU, ARFIP1 / Fold change vs veh, ARFIP1 / RFU, FAM179B / Fold change vs veh, FAM179B / RFU, BCL10 / Fold change vs veh, BCL10 / RFU, UHRF1BP1L / Fold change vs veh, UHRF1BP1L / RFU, BET1 / Fold change vs veh, BET1 / RFU, CNOT2 / Fold change vs veh, CNOT2 / RFU, ZNF268 / Fold change vs veh, ZNF268 / Fold change vs veh, ZNF507 / RFU, DGCR2 / Fold change vs veh, DGCR2 / RFU, WDSUB1 / Fold change vs veh, WDSUB1 / Fold change vs veh, HSP90B1 /// MIR3652 / RFU, ADSS / Fold change vs veh, ADSS / RFU, GK / Fold change vs veh, GK / RFU, ZNF148 / Fold change vs veh, ZNF148 / RFU, TAF9 / Fold change vs veh, TAF9 / RFU, SLC1A5 / Fold change vs veh, SLC1A5 / RFU, SLMO2 / Fold change vs veh, SLMO2 / RFU, ABCC4 / Fold change vs veh, ABCC4 / RFU, LOC101060439 /// RAP1B / Fold change vs veh, LOC101060439 /// RAP1B / RFU, RFX7 / Fold change vs veh, RFX7 / RFU, GTPBP10 / Fold change vs veh, GTPBP10 / RFU, CNEP1R1 / Fold change vs veh, CNEP1R1 / RFU, BIVM-ERCC5 /// ERCC5 / Fold change vs veh, BIVM-ERCC5 /// ERCC5 / RFU, ILF3 / Fold change vs veh, ILF3 / RFU 11762660_at / Fold change /veh 11762660_at / RFU VCAN (11757783_s_at) / Fold change /veh VCAN (11757783_s_at) / RFU DDX43 (11728927_at) / Fold change /veh DDX43 (11728927_at) / RFU KRT8 (11758188_x_at) / Fold change /veh KRT8 (11758188_x_at) / RFU NKD1 (11759106_at) / Fold change /veh NKD1 (11759106_at) / RFU SRD5A1 (11742802_a_at) / Fold change /veh SRD5A1 (11742802_a_at) / RFU TPSAB1 /// TPSB2 (11721975_s_at) / Fold change /veh TPSAB1 /// TPSB2 (11721975_s_at) / RFU GSTM3 (11746129_a_at) / Fold change /veh GSTM3 (11746129_a_at) / RFU IL23R (11737362_x_at) / Fold change /veh IL23R (11737362_x_at) / RFU TMEM51 (11727254_a_at) / Fold change /veh TMEM51 (11727254_a_at) / RFU PIWIL2 (11732686_x_at) / Fold change /veh PIWIL2 (11732686_x_at) / RFU ORM1 (11744905_x_at) / Fold change /veh ORM1 (11744905_x_at) / RFU CCDC152 (11743942_at) / Fold change /veh CCDC152 (11743942_at) / RFU ECM1 (11717891_a_at) / Fold change /veh ECM1 (11717891_a_at) / RFU IL23R (11748794_a_at) / Fold change /veh IL23R (11748794_a_at) / RFU TNFAIP8L3 (11732012_x_at) / Fold change /veh TNFAIP8L3 (11732012_x_at) / RFU MBOAT4 (11741988_at) / Fold change /veh MBOAT4 (11741988_at) / RFU 11764193_at / Fold change /veh 11764193_at / RFU TMEM53 (11763286_at) / Fold change /veh TMEM53 (11763286_at) / RFU MAGEB2 (11727129_at) / Fold change /veh MAGEB2 (11727129_at) / RFU TMEM200A (11744735_a_at) / Fold change /veh TMEM200A (11744735_a_at) / RFU CCDC152 (11751479_a_at) / Fold change /veh CCDC152 (11751479_a_at) / RFU FAM211A (11726209_a_at) / Fold change /veh FAM211A (11726209_a_at) / RFU RGS16 (11746705_a_at) / Fold change /veh RGS16 (11746705_a_at) / RFU VCAN (11755009_s_at) / Fold change /veh VCAN (11755009_s_at) / RFU RHOB (11743442_s_at) / Fold change /veh RHOB (11743442_s_at) / RFU RGS16 (11720943_a_at) / Fold change /veh RGS16 (11720943_a_at) / RFU RGS16 (11720944_at) / Fold change /veh RGS16 (11720944_at) / RFU, VPS4B / Fold change vs veh, VPS4B / RFU, CREB1 / Fold change vs veh, CREB1 / RFU, DNAJC13 / Fold change vs veh, DNAJC13 / RFU, GNAQ / Fold change vs veh, GNAQ / RFU, CDK5R1 / Fold change vs veh, CDK5R1 / RFU, ZRANB3 / Fold change vs veh, ZRANB3 / RFU, CUL4A / Fold change vs veh, CUL4A / RFU, CCNY / Fold change vs veh, CCNY / RFU, UFL1 / Fold change vs veh, UFL1 / RFU, COG3 / Fold change vs veh, COG3 / RFU, DIAPH2 / Fold change vs veh, DIAPH2 / RFU, SKA2 / Fold change vs veh, SKA2 / RFU, AFF3 / Fold change vs veh, AFF3 / RFU, LMF1 / Fold change vs veh, LMF1 / RFU, IPO11 / Fold change vs veh, IPO11 / RFU, DFFB / Fold change vs veh, DFFB / RFU, FOXP1 / Fold change vs veh, FOXP1 / RFU, CARD8 / Fold change vs veh, CARD8 / RFU, STRN3 / Fold change vs veh, STRN3 / RFU, ADK / Fold change vs veh, ADK / RFU, RASSF2 / Fold change vs veh, RASSF2 / RFU, WIPF1 / Fold change vs veh, WIPF1 / RFU, LARP1B / Fold change vs veh, LARP1B / RFU, RASA1 / Fold change vs veh, RASA1 / RFU, RB1 / Fold change vs veh, RB1 / RFU, PPFIA1 / Fold change vs veh, PPFIA1 / RFU, MAT2A / Fold change vs veh, MAT2A / RFU, CCT5 / Fold change vs veh, CCT5 / RFU, WDR92 / Fold change vs veh, WDR92 / RFU, CUX1 / Fold change vs veh, CUX1 / RFU, TTC7A / Fold change vs veh, TTC7A / RFU, TMEM135 / Fold change vs veh, TMEM135 / RFU, DEPTOR / Fold change vs veh, DEPTOR / RFU, CPM / Fold change vs veh, CPM / RFU, DNAJB6 / Fold change vs veh, DNAJB6 / RFU, CACNA2D3 / Fold change vs veh, CACNA2D3 / RFU, DTX4 / Fold change vs veh, DTX4 / RFU, TFCP2 / Fold change vs veh, TFCP2 / RFU, GMCL1 /// GMCL1P1 / Fold change vs veh, GMCL1 /// GMCL1P1 / RFU, AEBP2 / Fold change vs veh, AEBP2 / RFU, SNHG1 /// SNORD22 /// SNORD25 /// SNORD26 /// SNORD27 /// SNORD28 /// SNORD29 /// SNORD31 / Fold change vs veh, SNHG1 /// SNORD22 /// SNORD25 /// SNORD26 /// SNORD27 /// SNORD28 /// SNORD29 /// SNORD31 / Fold change (Aza/veh), C12orf56 (ProbeSet 11735607_a_at) / Fold change (ACY-1035/veh), C12orf56 (ProbeSet 11735607_a_at) / Fold change (Aza/veh), FGFR1OP (ProbeSet 11751329_s_at) / Fold change (ACY-1035/veh), FGFR1OP (ProbeSet 11751329_s_at) / Fold change (Aza/veh), VPS36 (ProbeSet 11739960_a_at) / Fold change (ACY-1035/veh), VPS36 (ProbeSet 11739960_a_at) / RFU SYPL1 (11715823_x_at) / Fold change /veh SYPL1 (11715823_x_at) / RFU IGFBP7 (11715501_s_at) / Fold change /veh IGFBP7 (11715501_s_at) / RFU REEP3 (11722064_at) / Fold change /veh REEP3 (11722064_at) / RFU IGLL1 (11728026_x_at) / Fold change /veh IGLL1 (11728026_x_at): dose or concentration left out as unconfirmed
Conditions: ProbeSet 11716331_a_at; LIST D

## Nc1ccc(-c2cccs2)cc1NC(=O)c1ccc2c(c1)cc(C1CC1)n2CCN1CCOCC1 [ACY-1035]
  Fold change vs veh, DNAJB6: 0.86
